Measured values as given in US20240383908A1, “SYNTHESIS AND APPLICATION OF PHOSPHATASE DEGRADER” (HINOVA PHARMACEUTICALS INC., priority 2021, published 2024).

Tests used:
[1] = target: T1, SHP2 protein (Homo sapiens, UniProt Q06124); assay: Degradation activity on SHP2 protein in NCI-H358 cells (Western blot, DC50); type: cell-based; design: endogenous in cells; settings: read-out: Degradation activity for differenct cell lines NCI-H358 (DC50)
T1 sequence (Q06124 1-593): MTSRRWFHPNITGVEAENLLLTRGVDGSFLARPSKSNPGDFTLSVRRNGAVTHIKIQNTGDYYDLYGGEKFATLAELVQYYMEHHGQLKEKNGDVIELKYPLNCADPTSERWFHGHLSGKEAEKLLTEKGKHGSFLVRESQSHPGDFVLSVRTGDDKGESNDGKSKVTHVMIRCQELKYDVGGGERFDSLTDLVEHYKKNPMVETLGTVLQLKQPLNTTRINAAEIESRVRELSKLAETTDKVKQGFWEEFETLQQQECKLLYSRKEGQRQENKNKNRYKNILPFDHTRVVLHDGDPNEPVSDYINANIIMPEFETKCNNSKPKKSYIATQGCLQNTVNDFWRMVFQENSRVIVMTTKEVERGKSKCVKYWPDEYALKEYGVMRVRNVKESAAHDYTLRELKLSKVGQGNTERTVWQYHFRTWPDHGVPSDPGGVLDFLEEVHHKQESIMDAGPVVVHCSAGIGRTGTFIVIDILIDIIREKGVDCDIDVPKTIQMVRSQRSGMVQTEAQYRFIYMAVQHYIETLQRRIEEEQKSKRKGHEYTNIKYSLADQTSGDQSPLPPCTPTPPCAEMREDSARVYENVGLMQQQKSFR
Procedure: (1) MV-411 cells were cultured in the cell culture medium, and then well-growing cells were selected and inoculated in a 12-well plate, with 1 mL/well and 1×10^6 cells/well. The plate was incubated overnight in a 5% CO2 cell incubator at 37° C.
(2) 10 mM storage solution of each drug was prepared using dimethylsulfoxide (DMSO). The stock solution was diluted gradually with DMSO before use, and then 1 μL of the compound solution was added to the cell culture well (to ensure that the DMSO concentration in the culture system was […]), so that the final drug concentration is 100 nM, 10 nM, 3 nM, 1 nM, 0.3 nM, and 0.1 nM. Two wells were set for each concentration. The plate was gently shaken and mixed. Additionally, negative control wells (containing an equal amount of DMSO) and positive control wells were included.
(3) After 24 hours of cultivation, the cells were lysed using RIPA cell lysate, and the proteins were extracted. The protein concentration was measured using a BCA assay kit. 5× concentrated protein buffer was loaded, heated at 100° C. for 5 min, and then the sample was stored at −20° C.
(4) For each well, 30 μg of protein was loaded to polyacrylamide gel for electrophoresis.
(5) The protein was transferred from polyacrylamide gel to PVDF membrane, and sealed at room temperature with 5% skimmed milk for 1 h, which was then incubated with the primary antibodies (Anti-SHP2 rabbit mAb and Anti-GAPDH rabbit mAb) at 4° C. overnight. The membrane was washed three times with TBST solution, 10 minutes for each time. After that, the membrane was incubated with the secondary antibodies (horseradish peroxidase labeled goat anti-rabbit IgG) at room temperature for 2 h, and then washed three times with TBST solution, 10 minutes for each time, followed by exposure.
(6) The images were analyzed with Image J grayscale, and the degradation ratio of protein bands in the test group was calculated, based on the negative control group (DMSO) (100%).
(7) Using the Dose-response-inhibition equation in the data processing software GraphPad Prism 8, the DC50 value was obtained (which represents the drug concentration corresponding to 50% degradation of the target protein).
Using similar methods and different cell lines, the degradation activity of the compound according to the present invention on SHP2 protein of different cell lines was tested under suitable culture conditions.

[2] = target: T1, SHP2 protein; assay: Degradation activity on SHP2 protein in MIA Paca-2 cells (Western blot, DC50); type: cell-based; design: endogenous in cells; host or cells: MIA Paca-2 cells; settings: read-out: Degradation activity for differenct cell lines MIA Paca-2 (DC50)
How it was run: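 Cells were treated 24 h at 37 °C with compound (0.1–100 nM final, 0.1% DMSO). SHP2 was measured by Western blot with GAPDH as loading control, densitometry normalized to DMSO (100%). DC50, the concentration giving 50% degradation, came from a dose-response fit.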

Structure (SMILES) | DC50 [1] | DC50 [2]
CC1(N)CCN(c2cnc(Sc3cccc(NC(=O)c4ccc(N5CCC(N6CC=C(c7ccc(C(=O)NCc8ccc9c(c8)CN(C8CCC(=O)NC8=O)C9=O)nc7F)CC6)CC5)c(F)c4)c3)cn2)CC1 (centres unmarked) [Compound 467] | 100 to 1000 nM | < 100 nM
CCC1(N)CCN(c2cnc(Sc3cccc(NC(=O)CCCCCCCCN4CCN(c5ccc(C(=O)NCc6ccc7c(c6)CN(C6CCC(=O)NC6=O)C7=O)nn5)CC4C(F)(F)F)c3)cn2)CC1 (centres unmarked) [Compound 226] | < 100 nM | < 100 nM
Cn1nc(C(=O)NCc2ccc3c(c2)CN(C2CCC(=O)NC2=O)C3=O)cc1C1=CCN(CCCCCCCCC(=O)Nc2cccc(Sc3cnc(N4CCC(C)(N)CC4)cn3)c2)CC1 (centres unmarked) [Compound 246] | < 100 nM | < 100 nM
CC1(N)CCN(c2cnc(Sc3cccc(NC(=O)c4ccc(N5CCC(N6CC=C(c7cnc(C(=O)NCc8ccc9c(c8)CN(C8CCC(=O)NC8=O)C9=O)cn7)CC6)CC5)cc4)c3)cn2)CC1 (centres unmarked) [Compound 371] | < 100 nM | 100 to 1000 nM
CC1(N)CCN(c2cnc(Sc3cccc(NC(=O)CCCCCCCOC4CCN(c5ccc(C(=O)NCc6ccc7c(c6)CN(C6CCC(=O)NC6=O)C7=O)nn5)CC4F)c3)cn2)CC1 (centres unmarked) [Compound 147] | < 100 nM | –
CC1CN(CCCCCCCCC(=O)Nc2cccc(Sc3cnc(N4CCC(C)(N)CC4)cn3)c2)CC=C1c1ccc(C(=O)NCc2ccc3c(c2)CN(C2CCC(=O)NC2=O)C3=O)nc1 (centres unmarked) [Compound 243] | < 100 nM | < 100 nM
CC1(N)CCN(c2cnc(Sc3cccc(NC(=O)c4ccc(N5CCC(N6CC=C(c7ccc(C(=O)NCc8ccc9c(c8)CN(C8CCC(=O)NC8=O)C9=O)nc7Cl)CC6)CC5)c(F)c4)c3)cn2)CC1 (centres unmarked) [Compound 442] | 100 to 1000 nM | 100 to 1000 nM
CC1(N)CCN(c2cnc(Sc3cccc(NC(=O)c4ccc(-c5ccc(N6CCC7(CC6)CC7C(=O)NCc6ccc7c(c6)CN(C6CCC(=O)NC6=O)C7=O)cc5)cc4)c3)cn2)CC1 (centres unmarked) [Compound 406] | > 1000 nM | > 1000 nM
CC1(N)CCN(c2cnc(Sc3cccc(NC(=O)CCCCc4ccc(N5CCN(c6ccc(C(=O)NCc7ccc8c(c7)CN(C7CCC(=O)NC7=O)C8=O)nn6)CC5)cc4)c3)cn2)CC1 (centres unmarked) [Compound 244] | < 100 nM | < 100 nM
CC1(N)CCN(c2cnc(Sc3cccc(NC(=O)c4ccc(N5CCC(N6CC=C(c7ncc(C(=O)NCc8ccc9c(c8)CN(C8CCC(=O)NC8=O)C9=O)cn7)CC6)CC5)cc4)c3)cn2)CC1 (centres unmarked) [Compound 370] | < 100 nM | 100 to 1000 nM
Cc1cc(N2CCC(N3CC=C(c4cnc(C(=O)NCc5ccc6c(c5)CN(C5CCC(=O)NC5=O)C6=O)c(Cl)c4)CC3)CC2)ccc1C(=O)Nc1cccc(Sc2cnc(N3CCC(C)(N)CC3)cn2)c1 (centres unmarked) [Compound 443] | < 100 nM | 100 to 1000 nM
CC1(N)CCN(c2cnc(Sc3cccc(NC(=O)CCCCCCN4CC5(CC=C(c6ccc(C(=O)NCc7ccc8c(c7)CN(C7CCC(=O)NC7=O)C8=O)nc6)CC5)C4)c3)cn2)CC1 (centres unmarked) [Compound 217] | < 100 nM | < 100 nM
CC1(N)CCN(c2cnc(Sc3cccc(NC(=O)c4ccc(N5CCC(N6CCN(c7ccc(C(=O)NCc8ccc9c(c8)CN(C8CCC(=O)NC8=O)C9=O)nc7)CC6)CC5)cn4)c3)cn2)CC1 (centres unmarked) [Compound 448] | < 100 nM | < 100 nM
CC1(N)CCN(c2cnc(Sc3cccc(NCc4ccc(CN5CCN(c6ccc(C(=O)NCc7ccc8c(c7)CN(C7CCC(=O)NC7=O)C8=O)nn6)CC5)cc4)c3)cn2)CC1 (centres unmarked) [Compound 247] | 100 to 1000 nM | > 1000 nM
C[C@H]1CN(CCCCCCCCC(=O)Nc2cccc(Sc3cnc(N4CCC(C)(N)CC4)cn3)c2)CCN1c1ccc(C(=O)NCc2ccc3c(c2)CN(C2CCC(=O)NC2=O)C3=O)nn1 (some centres unmarked) [Compound 250] | < 100 nM | < 100 nM
CC1(N)CCN(c2cnc(Sc3cccc(NC(=O)c4ccc(N5CCC(N6CC=C(c7cnc(C(=O)NCc8ccc9c(c8)CN(C8CCC(=O)NC8=O)C9=O)cc7Cl)CC6)CC5)c(F)c4)c3)cn2)CC1 (centres unmarked) [Compound 418] | < 100 nM | < 100 nM
Cc1cc(C(=O)Nc2cccc(Sc3cnc(N4CCC(C)(N)CC4)cn3)c2)ccc1N1CCC(N2CC=C(c3cnc(C(=O)NCc4ccc5c(c4)CN(C4CCC(=O)NC4=O)C5=O)c(F)c3)CC2)CC1 (centres unmarked) [Compound 439] | < 100 nM | < 100 nM
CC1(N)CCN(c2cnc(Sc3cccc(NC(=O)c4ccc(N5CCC(N6CC=C(c7ncc(C(=O)NCc8ccc9c(c8)CN(C8CCC(=O)NC8=O)C9=O)cc7Cl)CC6)CC5)cc4)c3)cn2)CC1 (centres unmarked) [Compound 365] | < 100 nM | 100 to 1000 nM
COc1cc(C2=CCN(C3CCN(c4ccc(C(=O)Nc5cccc(Sc6cnc(N7CCC(C)(N)CC7)cn6)c5)cc4)CC3)CC2)ccc1C(=O)NCc1ccc2c(c1)CN(C1CCC(=O)NC1=O)C2=O (centres unmarked) [Compound 377] | < 100 nM | < 100 nM
Cc1cc(C(=O)NCc2ccc3c(c2)CN(C2CCC(=O)NC2=O)C3=O)ncc1C1=CCN(C2CCN(c3ccc(C(=O)Nc4cccc(Sc5cnc(N6CCC7(CC6)CO[C@@H](C)[C@H]7N)cn5)c4)cc3F)CC2)CC1 (some centres unmarked) [Compound 465] | < 100 nM | < 100 nM
CC1(N)CCN(c2cnc(Sc3cccc(NC(=O)c4ncc(N5CCC(N6CCN(c7ccc(C(=O)NCc8ccc9c(c8)CN(C8CCC(=O)NC8=O)C9=O)nc7)CC6)CC5)cn4)c3)cn2)CC1 (centres unmarked) [Compound 451] | < 100 nM | < 100 nM
CC1(N)CCN(c2cnc(Sc3cccc(NC(=O)CCCCCCCCN4CCC(c5ccc(C(=O)NCc6ccc7c(c6)CN(C6CCC(=O)NC6=O)C7=O)nn5)CC4)c3)cn2)CC1 (centres unmarked) [Compound 218] | < 100 nM | < 100 nM
CC1(N)CCN(c2cnc(Sc3cccc(NC(=O)c4ccc(N5CCC(N6CC=C(c7ccc(C(=O)NCc8ccc9c(c8)CN(C8CCC(=O)NC8=O)C9=O)cc7)CC6)CC5)cc4)c3)cn2)CC1 (centres unmarked) [Compound 446] | < 100 nM | < 100 nM
CC1(N)CCN(c2cnc(Sc3cccc(NC(=O)CCCCCCCCN4CC=C(c5ccc(C(=O)NCc6ccc7c(c6)CN(C6CCC(=O)NC6=O)C7=O)nc5)C(C)(C)C4)c3)cn2)CC1 (centres unmarked) [Compound 222] | < 100 nM | < 100 nM
CC1(N)CCN(c2cnc(Sc3cccc(NC(=O)CCCCOc4ccc(N5CCN(c6ccc(C(=O)NCc7ccc8c(c7)CN(C7CCC(=O)NC7=O)C8=O)nn6)CC5)cc4)c3)cn2)CC1 (centres unmarked) [Compound 236] | < 100 nM | –
CC1(N)CCN(c2cnc(Sc3cccc(NC(=O)CCCCCCCCN4C5CCC4CC(c4ccc(C(=O)NCc6ccc7c(c6)CN(C6CCC(=O)NC6=O)C7=O)nn4)C5)c3)cn2)CC1 (single isomer, unassigned) [Compound 233] | < 100 nM | –
CC1(N)CCN(c2cnc(Sc3cccc(NC(=O)CCCCCCCCN4CCN(c5ccc(C(=O)NCc6ccc7c(c6)CN(C6CCC(=O)NC6=O)C7=O)nn5)CC4C(F)(F)F)c3)cn2)CC1 (centres unmarked) [Compound 225] | < 100 nM | –
CC1(N)CCN(c2cnc(Sc3cccc(NC(=O)CCCCCCCCN4C5CCC4CC(c4ccc(C(=O)NCc6ccc7c(c6)CN(C6CCC(=O)NC6=O)C7=O)nn4)C5)c3)cn2)CC1 (single isomer, unassigned) [Compound 234] | < 100 nM | –
CC1(N)CCN(c2cnc(Sc3cccc(NC(=O)CCCCCCCCN4CCc5cc(C(=O)NCc6ccc7c(c6)CN(C6CCC(=O)NC6=O)C7=O)cnc5C4)c3)cn2)CC1 (centres unmarked) [Compound 235] | < 100 nM | –
Cc1ncsc1-c1ccc([C@H](C)NC(=O)[C@@H]2C[C@@H](O)CN2C(=O)[C@@H](NC(=O)c2cnc(N3CC(OCC(=O)Nc4cccc(Sc5cnc(N6CCC(C)(N)CC6)cn5)c4)C3)nc2)C(C)(C)C)cc1 [Compound 240] | > 1000 nM | –
